Literature values as cited in patent publication US7189730B2, “A2A adenosine receptor antagonists” (CV Therapeutics, Inc., priority 2001, dated 2007).

Tests used:
[1] = system: experimentally induced cataleptic responses; settings: in vivo
[2] = system: haloperidol-induced catalepsy; settings: rat; Mandhane et al. 1997

For `CCCn1c(=O)c2c(nc(/C=C/c3ccc(OC)c(OC)c3)n2C)n(CCC)c1=O` [KF 17837], the “effect on experimentally induced cataleptic responses” value [1] is listed as “ameliorates”.
In the case of `N[C@@H](Cc1ccc(O)c(O)c1)C(=O)O` [L-DOPA], the “effect on haloperidol-induced catalepsy” value [2] is given as “block”.
For `Cn1c(=O)c2[nH]cnc2n(C)c1=O` [theophylline], the “improvement of symptoms in Parkinson's patients” value (Parkinson's patients) is given as “significant improvement of symptoms”.
